Laboratory results: US9180163B2, “Parstatin peptides” (priority 2009, dated 2015)
Where two headings read alike, the source gives them in different places.

Columns and labels:
[1] = tested on: nitric oxide content of myocardium; experiment: myocardial nitrite and nitrate content after ischemia-reperfusion; format: in vivo, rat; settings: 1 μg/kg pre-ischemic
Description: To determine whether parstatin (1-26) protects the heart by a mechanism involving nitric oxide synthase (NOS), rats were treated with L-NMA (15 μg/Kg, a general NOS inhibitor), with or without parstatin (1-26) (1 μg/Kg) prior to ischemia. […] The role of parstatin (1-26) in endothelial NOS activation was further evaluated by measuring the phosphorylation of Ser1177. In these experiments, the left ventricular free wall tissue was homogenized and immunoblot analysis was performed using an anti-phospho-endothelial NOS (Ser1177) primary antibody (Cell Signaling Technology, Danvers, Mass.). […] In addition, nitrite and nitrate content, a marker of endothelial NOS activity, was measured from both ischemic and non-ischemic tissues. Ischemia and 120 min reperfusion caused an increase in the production of NO in the ischemic tissue from the control group when compared to the sham group (FIG. 25D). […] Pre-ischemic treatment with parstatin (1-26) further increased NO content in the ischemic tissue by an additional 1.4-fold over control values and 2.0-fold over sham treated values.

[2] = tested on: cGMP content of myocardium; experiment: myocardial cGMP ELISA after ischemia-reperfusion; format: in vivo, rat; settings: 1 μg/kg, 120 min reperfusion
Description: To determine whether […] (1-26) protects the heart by a mechanism involving soluble guanylyl cyclase (sGC), rats were treated with ODQ (1 mg/kg, a sGC inhibitor) with or without […] (1-26) (1 μg/kg) prior to ischemia. ODQ abolished the reduction in infarct size caused by […] (1-26), but had no effect alone (FIG. 26A). Tissue accumulation of cGMP was measured after 120 min reperfusion from ischemic and non-ischemic myocardium. In these experiments, the cGMP was measured in the rat hearts by specific ELISA kits according to the manufacturer's instructions (Cayman Chemical, Ann Arbor, Mich.). The hearts (n=6/group) were excised after 120 min reperfusion and immediately frozen in liquid nitrogen, then stored at -80° C. until assayed. Frozen myocardial tissue samples in liquid nitrogen were ground to a fine powder in a stainless-steel mortar. Frozen tissue was dropped into 5-10 volumes (ml of solution/gram of tissue) of 5% trichloroacetic acid (TCA) in water. The samples were homogenized on ice […] using a polytron-type homogenizer. Centrifugation was at 30,000 r.p.m. at room temperature and the supernatant was collected for quantitative immunoassay of cGMP. […] (1-26) treatment group when compared to the control and sham treated groups respectively (FIG. 26B). No difference in cGMP tissue content was observed between the ischemic and non-ischemic zones within the control groups, however, […]

[3] = tested on: myocardial ischemia-reperfusion injury in Sprague Dawley rats; settings: for reduction in infarct size: 1 μg/Kg IV bolus
Description: Parstatin (1-41) was used in an in vivo rat model of cardiac ischemia and reperfusion, and in an in vitro isolated rat heart model of ischemia-reperfusion injury.
For in vivo infarct size studies, rats were anesthetized with pentobarbital sodium (50 mg/Kg) and heparin (1000 IU/Kg) and underwent 30 min of regional ischemia followed by 120 min of reperfusion. Parstatin (1-41) was administered-intravenously over 1 min starting 15 min prior to ischemia, or 15 min after the onset of ischemia, or 10 seconds after the onset of reperfusion in separate series of experiments (n=6/group).
To induce ischemia, ligature was positioned around the left main coronary artery and threaded through a plastic snare to permit reversible occlusion of the coronary artery. Coronary occlusion was induced by clamping the snare onto the heart and reperfusion was achieved by releasing the snare. At the end of reperfusion, the coronary artery was re-occluded and the risk zone was delineated by perfusion of 0.5% Evans' blue into the aortic cannula. Hearts were sectioned and incubated in 1% triphenyltetrazolium chloride in phosphate buffer for 15 min to define white necrotic tissue when fixed in 10% formalin for 24 h. Area at risk (AAR) and infarct-to-risk rations were determined by computerized planimetry using J-Image v.i.6 software (NIH, Bethesda, Mass.).
For in vivo infarct size/ischemia-reperfusion studies, rats were anesthetized with pentobarbital sodium (50 mg/Kg) and heparin (1000 IU/Kg) and underwent 30 min of regional ischemia followed by 120 min of reperfusion. Human hydrophobic parstatin (1-26) fragment was administered intravenously over 1 min at one of three time points: 1) starting 15 min prior to ischemia, 2) 15 min after the onset of ischemia, or 3) 10 seconds after the onset of reperfusion in a separate series of experiments (n=6/group).
Ischemia was induced by placement of a ligature around the left main coronary artery which was threaded through a plastic snare to permit reversible occlusion of the coronary artery. Coronary occlusion was induced by clamping the snare onto the heart and reperfusion was achieved by releasing the snare. At the end of reperfusion, the coronary artery was re-occluded and the risk zone was delineated by perfusion 0.5% Evans' blue into the aortic cannula.
Hearts were sectioned and incubated in 1% triphenyltetrazolium chloride in phosphate buffer for 15 min to define white necrotic tissue when fixed in 10% formalin for 24 h. Area at risk (AAR) and infarct-to-risk rations were determined by computerized planimetry using J-Image v.i.6 software (NIH, Bethesda, Mass.). The principal endpoint of these studies was infarct size expressed as a percentage of the area at risk.

HUVEC cells [4] = experiment: MTT cell proliferation assay; format: cell-based, human; settings: 10 μM
Description: Cell proliferation was evaluated using a 3-(4,5-[…])-2,5-diphenyltetrazolium bromide (MTT, Sigma-Aldrich, St. Louis, Mo.) assay. Endothelial cells (10,000/well) were seeded in 24-well tissue culture plates and incubated with growth medium for 24 h. Cells were then treated with the vehicle or the indicated peptides in medium containing 5% FBS for 1 to 3 days. After 24, 48, or 72 hours, MTT solution (5 mg/ml) was added to each well and incubated for 3 h at 37° C. The blue formazan crystals were solubilized by addition of DMSO and absorbance at 450 nm was recorded using a 96-well plate reader.

HUVEC cells [5] = experiment: Matrigel capillary tube-like formation; format: cell-based, human; settings: 5% FBS, 18 h; parstatin (1-41) 0.3 to 10 μM, other peptides 10 μM
Description: Primary human umbilical vein endothelial cells (HUVEC cells) were obtained from freshly delivered umbilical cords from caesarean births and were grown in M199 medium with 20% fetal bovine serum (FBS) supplemented with endothelial cell growth supplement and heparin. One of the most specific tests for angiogenesis is the measurement of the ability of endothelial cells to form capillary-like structures (i.e., tube formation). Tube formation is a multi-step process involving cell adhesion, migration and differentiation. Tube formation can be enhanced by use of Matrigel or fibrin clots to coat plastic culture dishes and it is an accepted model of angiogenesis.
Matrigel™ (Becton Dickinson Labware, N.J., USA) is a mixture of basement membrane components extracted from the Englebreth-Holm-Swarm tumor. […] Matrigel™ (250 μl) was added to each well of a 24-well plate and allowed to polymerize. A suspension of 40,000 HUVEC cells in M199 medium containing 5% FBS was added into each well coated with Matrigel™.
Cells were treated with increasing concentrations of human parstatin (1-41), scrambled parstatin, or parstatin (24-41) fragment. After 18 hours of incubation, the medium was removed, and the cells were fixed and stained, and tube-like structures were quantitated.

HUVEC cells [6] = experiment: [3H]-thymidine incorporation (DNA synthesis); format: cell-based, human; settings: serum, bFGF or VEGF; comparison peptides 10 μM
Description: The ability of parstatin (1-41) to inhibit DNA synthesis of endothelial cells was assessed in thymidine incorporation assays. HUVEC cells were grown until 60-80% confluent in 24-well plates. Cells were treated with indicated peptides in serum-free medium containing either 0.5% BSA, or VEGF, or bFGF, or medium containing 5% FBS, or epidermal growth factor (EGF), or heparin-binging EGF (HB-EGF) for 18 hours. All cells were pulsed with 0.5 μCi/ml [3H]-thymidine (ICN Biomedicals Inc., Irvine Calif.) for additional 6 h. Radioactivity incorporated into DNA was determined in liquid scintillation counter.

## MGPRRLLLVAACFSLCGPLLSARTRA (listed as Homo sapiens) [parstatin (1-26)]
[1]
  NO levels in non-ischemic tissue compared to control and sham rats: No differences
[1]; 120 min reperfusion
  NO content in the ischemic tissue over control values: 1.4 fold
  NO content in the ischemic tissue over sham treated values: 2.0 fold
[2]
  cGMP production in the ischemic zone vs non-ischemic zone: 2.2 fold
  tissue accumulation of cGMP in the ischemic tissue compared to control: 4.6 fold
  tissue accumulation of cGMP in the ischemic tissue compared to sham: 10.9 fold
[3]; 10 seconds after initiation of reperfusion
  reduction in infarct size: 62%
[3]; 15 min after the onset of ischemia
  reduction in infarct size: 73%
[3]; 1 μg/Kg, L-NMA 15 μg/Kg
  infarct sparing effect with L-NMA: abolished
[3]; 1 μg/Kg, pertussis toxin 25 μg/Kg 48 hours prior
  infarct size in the presence of pertussis toxin: unable to reduce infarct size
[3]; 1 μg/Kg, wortmannin 15 μg/Kg
  cardioprotective effects with wortmannin: abrogated
[3]; 1 μg/kg, ODQ 1 mg/kg
  reduction in infarct size with ODQ: abolished
[3]; 10 μg/Kg IV 15 min prior to ischemia
  reduction in infarct size compared with control: 78%
[3]; 10 μg/Kg IV 15 min prior to ischemia, 30 min ischemia, 120 min reperfusion
  infarct size: 13±1 % of the area at risk
[3]; 5-HD 10 mg/Kg
  cardioprotective effects with 5-HD: blocked
[3]; HMR 1098 6 mg/kg
  cardioprotective effects with HMR 1098: blocked
[3]; atractyloside 3 mg/Kg
  cardioprotection with atractyloside: partial blockage
[3]; glibenclamide 3 mg/kg
  cardioprotective effect with glibenclamide: completely diminished
[3]; rat, in vivo
  baseline hemodynamics (heart rate, blood pressures) between groups: no significant differences

## TRARRPESKATNATLDPR (listed as Homo sapiens) [parstatin (24-41), 24-41 (18 amino acids) of human parstatin, hydrophilic fragment]
HUVEC cells [4]
  HUVEC cell proliferation: without effect
HUVEC cells [5]
  tube formation on Matrigel: did not affect
HUVEC cells [6]
  DNA synthesis in HUVEC cells: did not cause any significant effect
